Measured values published in US8986961B2, “Fermentative production of acetone from renewable resources by means of novel metabolic pathway” (Evonik Degussa GmbH, priority 2007, dated 2015).
Values joined by “and” are separate entries in the source; they are usually repeats but may differ in a detail not shown here. Equal entries are not always repeated.

Experiments:
[1] = system: acyl-CoA synthetase/acyl-CoA thiokinase (with AMP formation; EC 6.2.1.2); conditions: purified enzyme, Shimizu et al. 1981; read-out: Km for substrate; cited from earlier work
[2] = target: T1, Acetoacetyl-CoA synthetase (AACS) (Rhizobium meliloti, UniProt Q9Z3R3); conditions: purified AACS, DTNB assay
T1 sequence (Q9Z3R3 1-650): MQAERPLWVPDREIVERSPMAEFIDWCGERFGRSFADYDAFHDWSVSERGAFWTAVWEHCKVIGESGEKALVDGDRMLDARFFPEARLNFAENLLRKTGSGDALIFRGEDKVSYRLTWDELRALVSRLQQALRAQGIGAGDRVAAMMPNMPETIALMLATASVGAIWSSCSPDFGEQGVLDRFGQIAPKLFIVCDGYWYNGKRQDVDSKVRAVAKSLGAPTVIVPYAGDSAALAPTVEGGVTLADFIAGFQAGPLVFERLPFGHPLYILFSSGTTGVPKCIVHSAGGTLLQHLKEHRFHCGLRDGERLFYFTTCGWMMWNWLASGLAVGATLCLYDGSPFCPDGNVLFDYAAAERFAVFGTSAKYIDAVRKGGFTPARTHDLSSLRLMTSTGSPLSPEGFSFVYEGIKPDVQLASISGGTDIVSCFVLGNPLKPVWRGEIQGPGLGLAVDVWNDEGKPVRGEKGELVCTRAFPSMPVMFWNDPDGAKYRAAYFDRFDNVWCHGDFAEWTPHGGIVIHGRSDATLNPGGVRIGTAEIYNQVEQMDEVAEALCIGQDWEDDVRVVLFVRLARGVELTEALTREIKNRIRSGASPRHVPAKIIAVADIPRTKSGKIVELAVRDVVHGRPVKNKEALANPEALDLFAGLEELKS
Description: (§1) The resulting fractions were combined and employed for the activity determination. […] In the DTNB assay, the terminal sulfhydryl group of CoA, which has been liberated by the enzymatic conversion to acetoacetate or acetate, reacts with DTNB to give a coloured product which can be determined by photometry at 412 nm.

[3] = target: T2, Thioesterase II (TEIIsrf) (Bacillus subtilis, UniProt Q08788); conditions: read-out: Km of TEIIsrf for substrate; purified His-tagged TEIIsrf, DTNB assay 412 nm, Lineweaver-Burk
T2 sequence (Q08788 with tags, fused parts or gaps): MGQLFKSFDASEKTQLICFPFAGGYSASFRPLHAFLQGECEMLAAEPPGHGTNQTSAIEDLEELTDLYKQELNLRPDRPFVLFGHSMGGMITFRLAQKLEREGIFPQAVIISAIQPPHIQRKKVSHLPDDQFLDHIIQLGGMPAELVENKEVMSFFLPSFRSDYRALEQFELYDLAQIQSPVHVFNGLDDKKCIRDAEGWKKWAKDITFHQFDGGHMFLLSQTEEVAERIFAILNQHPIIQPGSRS
Description: (§2) The intended activity measurement using the DTNB assay [5,5′-dithiobis(2-nitrobenzoic acid)], with which free SH groups are determined, required purification of the protein. This took place with the assistance of FPLC via the fused His tag of TEIIsrf by means of metal chelate affinity chromatography on Ni^2+-NTA agarose and increasing imidazole gradient.
(§3) For this purpose, initially the cells were harvested (5000×g, 15 min, 4° C.), suspended in 3 ml/g fresh weight of cell disruption buffer (50 mM HEPES, 300 mM NaCl, pH 7.8) and stored if necessary at −20° C. The cells were disrupted by ultrasound treatment (Sonicator Bandelin Sonopuls, Bandelin Berlin), and the crude extract was obtained by centrifugation (30 000×g, 30 min, 4° C.). Purification took place on an FPLC system (Pharmacia Biotech GmbH). 3.5 ml of crude extract were loaded onto the Ni^2+-NTA agarose column (Qiagen Superflow, bed volume 5 ml) which had been prepared and equilibrated (50 mM HEPES, 300 mM NaCl, 30 mM imidazole, pH 7) in accordance with the manufacturer's instructions. […]
as §1

[4] = target: YbgC acyl-CoA thioesterase (EC 3.1.2.18) (Haemophilus influenzae, UniProt P44679); conditions: Zhuang et al. 2002; read-out: Km of YbgC for substrate; cited from earlier work
[5] = system: CC(=O)CC(=O)SCCNC(=O)CCNC(=O)[C@H](O)C(C)(C)COP(=O)(O)OP(=O)(O)OC[C@H]1O[C@@H](n2cnc3c(N)ncnc32)[C@H](O)[C@@H]1OP(=O)(O)O; assay: purified protein, by the assay type; conditions: other: YbgC elution fractions (IMPACT system), DTNB assay; measurements varied
Description: as §1
Expression took place in E. coli BL21 (DE3) in LBAmp medium until induction at an OD600nm of ˜0.5 with 0.5 mM IPTG at 37° C., and thereafter the culture was incubated at 20° C. and 150 rpm for a further 6 h. The heterologously expressed fusion protein (approx. 70 kDa) binds to chitin. Addition of DTT causes a conformational change and induces cutting out of the target protein (approx. 15 kDa), which can subsequently be eluted.

[6] = system: CC(=O)SCCNC(=O)CCNC(=O)[C@H](O)C(C)(C)COP(=O)(O)OP(=O)(O)OC[C@H]1O[C@@H](n2cnc3c(N)ncnc32)[C@H](O)[C@@H]1OP(=O)(O)O; assay: purified protein, by the assay type; conditions: other: YbgC elution fractions (IMPACT system), DTNB assay; measurements varied
E. coli HB101 = assay: Acetone formation in E. coli HB101, 5 ml cultures; assay type: cell-based, Escherichia coli; conditions: HB101, LBAmp, 5 ml culture, 37° C., glucose 20 g/l, cell-free supernatant, gas chromatography
Description: All the resulting plasmid variants (see Table 1) were investigated for acetone formation in the E. coli cloning strain HB101. The analyses took place on the 5 ml scale in LB medium with ampicillin (100 μg/ml) after inoculation from appropriate precultures and after incubation at 37° C. and 200 rpm. The optical density (600 nm) was followed by photometry and, at a value of about 0.5-0.6, expression of the cloned genes was induced by adding 1 mM IPTG (isopropyl β-D-thiogalactopyrano-side) and, after 3-4 h, glucose (20 g/l) was added. No induction took place with the variants under the control of the thiolase promoter because it was assumed that constitutive expression takes place. Samples were taken at particular times over a period of about 48 h, and the concentration of acetone and acetate in the cell-free medium supernatant was determined by gas chromatography. Additional glucose doses optionally took place in varying amounts (in the range 10-40 g/l) either 4 h after induction or else simultaneously with the induction.

[7] = substrate: CC(=O)SCCNC(=O)CCNC(=O)[C@H](O)C(C)(C)COP(=O)(O)OP(=O)(O)OC[C@H]1O[C@@H](n2cnc3c(N)ncnc32)[C@H](O)[C@@H]1OP(=O)(O)O; assay: purified protein, by the assay type; conditions: other: purified His-tagged AACS (peak 2), DTNB assay
[8] = substrate: CC(=O)CC(=O)SCCNC(=O)CCNC(=O)[C@H](O)C(C)(C)COP(=O)(O)OP(=O)(O)OC[C@H]1O[C@@H](n2cnc3c(N)ncnc32)[C@H](O)[C@@H]1OP(=O)(O)O; assay: purified protein, by the assay type; conditions: other: purified His-tagged TEIIsrf, DTNB assay 412 nm, Lineweaver-Burk
Description: as §2, §3, §1

Sequence of YbgC acyl-CoA thioesterase (EC 3.1.2.18) (P44679 whole entry): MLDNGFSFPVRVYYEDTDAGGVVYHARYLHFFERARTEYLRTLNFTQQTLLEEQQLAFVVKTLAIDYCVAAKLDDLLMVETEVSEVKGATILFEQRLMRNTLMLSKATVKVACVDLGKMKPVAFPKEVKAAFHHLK

CCC(=O)C(=O)O [2-ketobutyrate]
Km [1]: 25 µM

CC(=O)CC(=O)SCCNC(=O)CCNC(=O)[C@H](O)C(C)(C)COP(=O)(O)OP(=O)(O)OC[C@H]1O[C@@H](n2cnc3c(N)ncnc32)[C@H](O)[C@@H]1OP(=O)(O)O [acetoacetyl-CoA]
specific activity of the enzyme with substrate [2]: 0.0038 µmol/min/mg

CC(=O)SCCNC(=O)CCNC(=O)[C@H](O)C(C)(C)COP(=O)(O)OP(=O)(O)OC[C@H]1O[C@@H](n2cnc3c(N)ncnc32)[C@H](O)[C@@H]1OP(=O)(O)O [acetyl-CoA]
Km [3]: 200 µM

CCCC(=O)SCCNC(=O)CCNC(=O)[C@H](O)C(C)(C)COP(=O)(O)OP(=O)(O)OC[C@H]1O[C@@H](n2cnc3c(N)ncnc32)[C@H](O)[C@@H]1OP(=O)(O)O [butyryl-CoA]
Km [4]: 24000 µM | Km [1]: 10 µM

Acyl-CoA thioesterase YbgC (Haemophilus influenzae Rd KW20)
Km [5]: 140 µM | Km [6]: 530 µM

pUC18att: plasmid SEQ ID No. 10; teIIsrf, adc, thlA in pUC18 under thl promoter
Max. acetone concentration (E. coli HB101): 35 mM and 2.0 g/l

β-hydroxybutyrate-CoA
Km [4]: 20000 µM | Km [1]: 25 µM

B1: Acetoacetyl-CoA synthetase (AACS) (Sinorhizobium meliloti 1021) (protein)
chain: T1 sequence (Q9Z3R3 1-650)
Km [7]: 700 µM

B2: Thioesterase II (TEIIsrf) (Bacillus subtilis subsp. subtilis str. 168) (protein)
chain: T2 sequence (Q08788 with tags, fused parts or gaps)
Km [8]: 770 µM
